Source: patent publication US20160084823A1, “METHODS AND KITS FOR TESTING THE GE[…] AN AGENT” (INSERM (INSTITUT NATIONAL DE LA SANTÉ ET DE LA RECHERCHE …, priority 2013, published 2016)

System: p53 target genes (KIAA0284; PODXL1; RRAD; FHL2; TP53I3)
Test: p53 genotoxicity assay: RT-QMPSF of p53 target gene induction in EBV-immortalized human lymphocytes (wild type TP53 vs p.R175H)
Conditions: 0.3 μM doxorubicin; lymphocytes from a healthy control and from a Li-Fraumeni patient with p.R175H germline mutation; FIG. 2
Method: In the first version of this assay EBV-immortalized human lymphocytes derived from healthy blood donor with wild type TP53 or Li-Fraumeni patients harboring germline heterozygous TP53 mutations are cultured in 24 well plates, during 5 h, with or without the chemicals to test. RNA is then extracted using Nucleospin RNAII kit (Macherey Nagel). […] RT-QMPSF analysis using 5 TP53 target genes and 2 control amplicons are performed on cells treated or not with the chemicals and profiles were compared after normalization on controls amplicons.
In each case, the TP53 genotype of EBV-immortalized lymphocytes was checked by sequencing and QMPSF analyses. EBV-transformed lymphocytes were maintained in RPMI 1640 medium (GIBCO, Invitrogen), supplemented with 10% heat-inactivated fetal bovine serum (Invitrogen) at 37° C. with 5% CO2. […]
After treatment cells were centrifuged, lysed using RA1 reagent from Nucleospin RNAII (Macherey Nagel), RNA was extracted following the manufacturer's instructions and quantified using a ND-1000 UV-Vis Spectrophotometer (NanoDrop technologies). The integrity of the RNA was assessed with the Agilent 2100 Bioanalyzer (Agilent), according to the manufacturer's instructions. […]

## COc1cccc2c1C(=O)c1c(O)c3c(c(O)c1C2=O)C[C@@](O)(C(=O)CO)C[C@@H]3O[C@H]1C[C@H](N)[C@H](O)[C@H](C)O1 [doxorubicin]
  expression induction of p53 target genes (RT-QMPSF): showed clearly expression induction of 5 p53 target genes (KIAA0284; PODXL1; RRAD; FHL2; TP53I3) specifically in control lymphocytes
